{"source": "patent US20090291953A1", "about": "“PHAR[…] OF REBOXETINE” (Pfizer Inc, priority 2002, published 2009)", "assay_type_in_all_cases": "physicochemical", "key": {"[1]": {"assay": "Thermogravimetric Analysis (TGA), volatile content", "experimental": "The volatile content measured by means of Thermogravimetric Analysis (TGA) was relevant: in fact, a weight loss of about 2% was detected upon heating showing a related thermal feature. Whereas for SS-reboxetine fumarate and succinate salts a negligible […] weight loss was measured."}, "[2]": {"assay": "Hygroscopicity test by Dynamic Moisture Sorption Gravimetry (DVS 1000)", "conditions": "for Effects of moisture update: reversibility / retention of water uptake: DVS sorption/desorption, dependent on relative environmental humidity; for Water uptake %: 25° C.", "description": "The water uptake of succinate and fumarate salts of S,S-reboxetine was investigated by submitting a sample of such salts to a hygroscopicity test by means of a DVS 1000 (SMS) according to the principle of Dynamic Moisture Sorption Gravimetry (DMSG). The apparatus is a “controlled atmosphere microbalance” where the weighed sample is exposed to programmed variations of the relative humidity (RH) at a constant and controlled temperature. The measured parameters (weight, time and RH), reported in Excel worksheets, allowed obtaining hygroscopicity curves over the tested RH range. Multiple sorption/desorption cycles between 0% and 90% RH were performed at 25° C. Progressive variations of RH were of 10%; they were operated by the software at the equilibration of the sample weight. This condition was defined at a constant rate of percent weight variation 0.005%/min (average of 5 minutes survey). The experimental results were reported in the DVS Isotherm Reports and Isotherm Plots.\nThe obtained results are summarized in the Table V, reporting the water uptake expressed as percent change in mass, and FIG. 4."}, "[3]": {"assay": "DSC analyses on samples recovered after DVS tests", "conditions": "for DSC profile after equilibration at high humidity (DVS test method): maximum relative humidity of 90% at 25° C., equilibration up to 0.005%/min or no more than 360 minutes; for Modification of solid structure after DVS test (observed by DSC): tested sample after DVS sorption/desorption", "experimental": "DSC analyses were carried out with a Perkin-Elmer DSC-7 apparatus. Aluminium DSC pans were loaded with about of 2 mg of sample. The temperature range of analysis was between 30° and 210° C. The samples were analyzed under nitrogen flow (to eliminate oxidative and pyrrolitic effects) at a heating rate of 10° C./min.\nDSC analyses were executed as reported above also on the samples recovered after DVS tests, executed according to the DMSG principle. As shown below in FIG. 5, DSC profiles of SS-reboxetine succinate and fumarate salts were unchanged after equilibration at high humidity according to the DVS test method (maximum relative humidity of 90% at 25° C. and equilibration up to 0.005%/min or no more than 360 minutes)."}, "[4]": {"conditions": "listed as S,S-reboxetine mesylate"}}, "data": [{"molecule": "CCOc1ccccc1O[C@@H](c1ccccc1)[C@@H]1CNCCO1.O=C(O)/C=C/C(=O)O", "note": "(single isomer, unassigned) [Fumarate salt, Reboxetine S,S Enantiomer Fumarate Salt]", "values": [{"measurement": "Weight loss upon heating (TGA), in words", "setting": "[1]", "value": "negligible"}, {"measurement": "Effects of moisture update: reversibility / retention of water uptake", "setting": "[2]; Fumarate Salt", "value": "Reversible water"}, {"measurement": "Effects of moisture update: reversibility / retention of water uptake", "setting": "[2]; listed as fumarate salt, Fumarate Salt", "value": "reversible"}, {"measurement": "Water uptake %", "setting": "[2]; Relative Humidity 20%", "value": 0.06, "unit": "%"}, {"measurement": "Water uptake %", "setting": "[2]; Relative Humidity 35%", "value": 0.11, "unit": "%"}, {"measurement": "Water uptake %", "setting": "[2]; Relative Humidity 50%", "value": 0.16, "unit": "%"}, {"measurement": "Water uptake %", "setting": "[2]; Relative Humidity 65%", "value": 0.21, "unit": "%"}, {"measurement": "Water uptake %", "setting": "[2]; Relative Humidity 80%", "value": 0.31, "unit": "%"}, {"measurement": "Water uptake %", "setting": "[2]; Relative Humidity 90%", "value": 0.47, "unit": "%"}, {"measurement": "DSC profile after equilibration at high humidity (DVS test method)", "setting": "[3]", "value": "unchanged"}]}, {"molecule": "CCOc1ccccc1O[C@H](c1ccccc1)[C@H]1CNCCO1.CS(=O)(=O)O", "note": "[Mesylate salt, S,S-reboxetine mesylate]", "values": [{"measurement": "Weight loss upon heating (volatile content, TGA)", "setting": "[1]", "value": "about 2%"}, {"measurement": "Effects of moisture update: reversibility / retention of water uptake", "setting": "[2]", "value": "Retention of water"}, {"measurement": "Effects of moisture update: reversibility / retention of water uptake", "setting": "[2]; [4]", "value": "only partially eliminated"}, {"measurement": "Water uptake retained after re-equilibration", "setting": "[2]; DVS, after re-equilibration", "value": "about 4%"}, {"measurement": "Amount of water adsorbed (uptake) in hygroscopicity test", "setting": "[2]; DVS, at 90% RH printed for mesylate salt", "value": "up to 9%"}, {"measurement": "Desorption Cycle Water content % (percent change in mass)", "setting": "[2]; Relative Humidity 0%", "value": 4.3, "unit": "%"}, {"measurement": "Sorption Cycle Water content % (percent change in mass)", "setting": "[2]; Relative Humidity 0%", "value": 0.0, "unit": "%"}, {"measurement": "Desorption Cycle Water content % (percent change in mass)", "setting": "[2]; Relative Humidity 20%", "value": 4.5, "unit": "%"}, {"measurement": "Sorption Cycle Water content % (percent change in mass)", "setting": "[2]; Relative Humidity 20%", "value": 0.5, "unit": "%"}, {"measurement": "Desorption Cycle Water content % (percent change in mass)", "setting": "[2]; Relative Humidity 35%", "value": 4.6, "unit": "%"}, {"measurement": "Sorption Cycle Water content % (percent change in mass)", "setting": "[2]; Relative Humidity 35%", "value": 0.6, "unit": "%"}, {"measurement": "Desorption Cycle Water content % (percent change in mass)", "setting": "[2]; Relative Humidity 50%", "value": 4.6, "unit": "%"}, {"measurement": "Sorption Cycle Water content % (percent change in mass)", "setting": "[2]; Relative Humidity 50%", "value": 0.7, "unit": "%"}, {"measurement": "Desorption Cycle Water content % (percent change in mass)", "setting": "[2]; Relative Humidity 65%", "value": 4.6, "unit": "%"}, {"measurement": "Sorption Cycle Water content % (percent change in mass)", "setting": "[2]; Relative Humidity 65%", "value": 0.9, "unit": "%"}, {"measurement": "Desorption Cycle Water content % (percent change in mass)", "setting": "[2]; Relative Humidity 80%", "value": 4.7, "unit": "%"}, {"measurement": "Sorption Cycle Water content % (percent change in mass)", "setting": "[2]; Relative Humidity 80%", "value": 4.5, "unit": "%"}, {"measurement": "Desorption Cycle Water content % (percent change in mass)", "setting": "[2]; Relative Humidity 90%", "value": 8.7, "unit": "%"}, {"measurement": "Sorption Cycle Water content % (percent change in mass)", "setting": "[2]; Relative Humidity 90%", "value": 8.7, "unit": "%"}, {"measurement": "Effects of moisture update: change in crystalline form", "setting": "[2]; after water uptake in DVS test", "value": "Irreversible change"}, {"measurement": "DSC profile after equilibration at high humidity (DVS test method)", "setting": "[3]", "value": "complete destructuration"}, {"measurement": "Modification of solid structure after DVS test (observed by DSC)", "setting": "[3]; [4]", "value": "solid state modification was observed"}, {"measurement": "Modification of solid structure after DVS test (observed by DSC)", "setting": "[3]; listed as mesylate salt", "value": "loss of crystallinity"}]}, {"molecule": "CCOc1ccccc1O[C@@H](c1ccccc1)[C@@H]1CNCCO1.O=C(O)CCC(=O)O", "note": "(single isomer, unassigned) [Succinate salt, Reboxetine S,S Enantiomer Succinate Salt]", "values": [{"measurement": "Weight loss upon heating (TGA), in words", "setting": "[1]", "value": "negligible"}, {"measurement": "Effects of moisture update: reversibility / retention of water uptake", "setting": "[2]; Succinate Salt", "value": "Reversible water"}, {"measurement": "Effects of moisture update: reversibility / retention of water uptake", "setting": "[2]; listed as succinate salt, Succinate Salt", "value": "reversible"}, {"measurement": "Water uptake %", "setting": "[2]; Relative Humidity 20%", "value": 0.03, "unit": "%"}, {"measurement": "Water uptake %", "setting": "[2]; Relative Humidity 35%", "value": 0.06, "unit": "%"}, {"measurement": "Water uptake %", "setting": "[2]; Relative Humidity 50%", "value": 0.10, "unit": "%"}, {"measurement": "Water uptake %", "setting": "[2]; Relative Humidity 65%", "value": 0.14, "unit": "%"}, {"measurement": "Water uptake %", "setting": "[2]; Relative Humidity 80%", "value": 0.21, "unit": "%"}, {"measurement": "Water uptake %", "setting": "[2]; Relative Humidity 90%", "value": 0.29, "unit": "%"}, {"measurement": "DSC profile after equilibration at high humidity (DVS test method)", "setting": "[3]", "value": "unchanged"}]}]}
